# From patent publication US20200376287A1, “METHODS FOR INCREASING TGF-B SIGNALING” (TECHNION RESEARCH & DEVELOPMENT FOUNDATION LIMITED, priority 2019, published 2020)
# B1: ovalbumin (protein, UniProt P01012 2-386, looked up)
# Ovalbumin: GSIGAASMEFCFDVFKELKVHHANENIFYCPIAIMSALAMVYLGAKDSTRTQINKVVRFDKLPGFGDSIEAQCGTSVNVHSSLRDILNQITKPNDVYSFSLASRLYAEERYPILPEYLQCVKELYRGGLEPINFQTAADQARELINSWVESQTNGIIRNVLQPSSVDSQTAMVLVNAIVFKGLWEKAFKDEDTQAMPFRVTEQESKPVQMMYQIGLFRVASMASEKMKILELPFASGTMSMLVLLPDEVSGLEQLESIINFEKLTEWTSSNVMEERKIKVYLPRMKMEEKYNLTSVLMAMGITDVFSSSANLSGISSAESLKISQAVHAAHAEINEAGREVVGSAEAGVDAASVSEEFRADHPFLFCIKHIATNAVLFFGRCVSP
# notes: orally consumed novel innocuous food antigen
# System: neurons in the mid-posterior insular cortex (mpIC)
# Assay: Arc expression in the mpIC of Arc-dVenus reporter mice after oral consumption
# Assay type: in vivo
# Settings: for response of neurons in the mpIC (Arc expression) to oral consumption: Arc-dVenus reporter mice, compared with water
# Description: The expression of Arc was evaluated by immunohistochemical staining for GFP (green) to amplify the signal of dVenus and co-localized with DAPI nuclear staining (blue). Dotted lines are based on Allen Brain Atlas and depict the cytoarchitectonic layers of the insular cortex (granular insula; GI, dysgranular insula; DI, agranular insula; AI) and the claustrum (CI). Scale bar, 200 μm. (1B) A graph showing manual quantification of Arc-positive cells that were identified by GFP and DAPI double-positive staining per region of interest (ROI=[…]) in mice that were exposed to water or OVA. Student's t-test; mean±s.e.m; n=3, 4; **P<0.01. (1C) Maps showing the location of the insular cortex in mice (upper left). Arc-expressing neurons following oral consumption of OVA were found in the mid-posterior region of the insula (upper right) that comprises both gustatory and visceral cortices (lower panel). (1D) A location map and micrographs showing validation of the injection site in the mpIC. Representative image describing the expression of the inhibiting form of designer receptors exclusively activated by designer drugs (DREADDs; Gi) in neurons following stereotactic injection of a viral vector (AAV8-hSyn-hM4Di (Gi)-mCherry), in the GI and DI layers of the mpIC ((0.14-0.18) mm Anterior-Posterior (AP); (3.6-3.8) mm Medial-Lateral (ML); (2.5-2.6) mm Dorsal-Ventral (DV)).
# FIGS. 5A-5F include fluorescent micrographs, graphs, and location maps, showing representation of aversive information in the mpIC. […] The expression of Arc was evaluated as described in FIG. 1A. Dotted lines are based on Allen Brain Atlas, and depict the cytoarchitectonic layers of the insular cortex (granular insula; GI, dysgranular insula; DI, agranular insula; AI) and the claustrum (CI). Scale bar, 200 μm. (5B) Manual quantification of Arc-positive cells in the region of interest (ROI=[…]) was performed as described in FIG. 1A in mice that consumed water or denatonium benzoate. Student's t-test; mean±s.e.m; n=3, 5; *P<0.05. (5C) The images show Arc expression in the mpIC of Arc-dVenus reporter mice that were exposed to OVA (left panel) or denatonium benzoate (right panel). The numbers (1-6) represent the layers of the cerebral cortex. Scale bar, 200 μm. (5D) Graphs represent the difference in total Arc expression (left) and the distribution of Arc-positive cells in the 3 cytoarchitectonic layers of the insular cortex (GI, DI, and AI) following exposure of mice to OVA or denatonium benzoate. […] (5F) Graphs depict the total difference in Arc-positive cells in the ⅔ layer of the cerebral cortex (left) of the mpIC and expression of Arc in this layer divided by the insular layers (GI, DI, and AI). Student's t-test; mean±s.e.m; n=3, 5; *P<0.05, **P<0.01.
# Thus far, the inventors exposed the mice only to positive appetitive signals, however, whether the mpIC also responds to aversive information that can inform about the presence of pathogens, left unclear. To answer this question the inventors used the Arc reporter mice, except this time they were exposed to the bitter substance denatonium benzoate.
Molecule,response of neurons in the mpIC (Arc expression) to oral consumption,Arc-positive cells in the granular layer (GI) of the mpIC (denatonium benzoate (bitter) compared to OVA),total number of activated neurons in the mpIC (denatonium benzoate compared to OVA),Arc expression in the AI layer of the mpIC (OVA-consuming mice compared to mice exposed to denatonium benzoate)
CC[N+](CC)(CC(=O)Nc1c(C)cccc1C)Cc1ccccc1 [denatonium benzoate],neurons in the mpIC also respond,less Arc-positive cells,no significant difference,
B1,respond to oral consumption of OVA,,,lower expression
